Results from PubChem BioAssay (NCI).
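96-well plates; 48 h exposure; 5 concentrations. Endpoints by linear interpolation between flanking doses. Not reached: highest tested concentration assigned. At the TGI there is no net growth.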

Tests used:
Assay in all cases: NCI tumour cell line growth inhibition, 48 h
SF-539 CNS = system: SF-539 CNS
SN12C renal = system: SN12C renal
HCC-2998 colon = system: HCC-2998 colon
OVCAR-4 ovarian = system: OVCAR-4 ovarian
TK-10 renal = system: TK-10 renal
DU-145 prostate = system: DU-145 prostate
EKVX NSCLC = system: EKVX NSCLC
SR leukemia = system: SR leukemia
HCT-15 colon = system: HCT-15 colon
KM20L2 colon = system: KM20L2 colon

## O=CC(I)=C(c1ccccc1)c1ccccc1
SF-539 CNS
  TGI: 45.3 µM
SN12C renal
  TGI: 45.3 µM
HCC-2998 colon
  TGI: 35.8 µM
OVCAR-4 ovarian
  TGI: 27.3 µM
TK-10 renal
  TGI: 44.8 µM
DU-145 prostate
  TGI: 32.7 µM
EKVX NSCLC
  TGI: 36 µM
SR leukemia
  TGI: 27.9 µM
HCT-15 colon
  TGI: 28.4 µM

## c1c[nH]c(-c2cccc3nsnc23)c1
SF-539 CNS
  TGI: > 100 µM
SN12C renal
  TGI: > 100 µM
HCC-2998 colon
  TGI: > 100 µM
OVCAR-4 ovarian
  TGI: > 100 µM
TK-10 renal
  TGI: > 100 µM
DU-145 prostate
  TGI: > 100 µM
EKVX NSCLC
  TGI: > 100 µM
SR leukemia
  TGI: > 100 µM
HCT-15 colon
  TGI: > 100 µM

## Cn1c2ccccc2c2ccc3c(c21)C(=O)c1ccc2c4ccccc4n(C)c2c1C3=O
SF-539 CNS
  TGI: > 100 µM
SN12C renal
  TGI: > 100 µM
HCC-2998 colon
  TGI: > 100 µM
OVCAR-4 ovarian
  TGI: > 100 µM
TK-10 renal
  TGI: > 100 µM
DU-145 prostate
  TGI: > 100 µM
EKVX NSCLC
  TGI: > 100 µM
SR leukemia
  TGI: > 100 µM
HCT-15 colon
  TGI: > 100 µM

## NCCN1CCCCCc2ccccc21
SF-539 CNS
  TGI: > 10 µM
SN12C renal
  TGI: > 10 µM
HCC-2998 colon
  TGI: > 10 µM
OVCAR-4 ovarian
  TGI: > 10 µM
TK-10 renal
  TGI: > 10 µM
DU-145 prostate
  TGI: > 10 µM
EKVX NSCLC
  TGI: > 10 µM
SR leukemia
  TGI: > 10 µM
HCT-15 colon
  TGI: > 10 µM

## CN(C)CCN(c1ccccn1)c1ccccn1
SF-539 CNS
  TGI: > 100 µM
SN12C renal
  TGI: > 100 µM
HCC-2998 colon
  TGI: > 100 µM
OVCAR-4 ovarian
  TGI: > 100 µM
TK-10 renal
  TGI: > 100 µM
DU-145 prostate
  TGI: > 100 µM
EKVX NSCLC
  TGI: > 100 µM
SR leukemia
  TGI: > 100 µM
HCT-15 colon
  TGI: > 100 µM

## O=C(O)c1nc2ccc(C(F)(F)F)cc2[nH]c1=O
SF-539 CNS
  TGI: > 100 µM
SN12C renal
  TGI: > 100 µM
HCC-2998 colon
  TGI: > 100 µM
OVCAR-4 ovarian
  TGI: > 100 µM
TK-10 renal
  TGI: > 100 µM
DU-145 prostate
  TGI: > 100 µM
EKVX NSCLC
  TGI: > 100 µM
SR leukemia
  TGI: > 100 µM
HCT-15 colon
  TGI: > 100 µM

## CN(CCN1CCCC1)C1CCc2cc(Cl)c(Cl)cc2C1 (configuration not stated)
SF-539 CNS
  TGI: 31.4 µM
SN12C renal
  TGI: 30.9 µM
HCC-2998 colon
  TGI: 18.2 µM
OVCAR-4 ovarian
  TGI: 51.1 µM
TK-10 renal
  TGI: 30.9 µM
DU-145 prostate
  TGI: 26 µM
EKVX NSCLC
  TGI: 47.6 µM
SR leukemia
  TGI: 74.5 µM
HCT-15 colon
  TGI: 26.5 µM

## CC(C)Oc1cccc(N2C(n3ccnc3)=Nc3ccncc3S2(=O)=O)c1
SF-539 CNS
  TGI: 20.1 µM
SN12C renal
  TGI: 29.2 µM
HCC-2998 colon
  TGI: 31 µM
OVCAR-4 ovarian
  TGI: 33.7 µM
TK-10 renal
  TGI: 24.5 µM
DU-145 prostate
  TGI: 25 µM
EKVX NSCLC
  TGI: 30.4 µM
SR leukemia
  TGI: 14.9 µM
HCT-15 colon
  TGI: 32.7 µM

## COC(=O)CNC(=O)C(CSC(=O)OCC1c2ccccc2-c2ccccc21)NC(=O)CCC(NC(=O)OCC1c2ccccc2-c2ccccc21)C(=O)OC (configuration not stated)
SF-539 CNS
  TGI: 37.8 µM
SN12C renal
  TGI: > 100 µM
HCC-2998 colon
  TGI: 40.7 µM
OVCAR-4 ovarian
  TGI: 33.4 µM
TK-10 renal
  TGI: > 100 µM
DU-145 prostate
  TGI: > 100 µM
EKVX NSCLC
  TGI: > 100 µM
SR leukemia
  TGI: 37.5 µM
HCT-15 colon
  TGI: > 100 µM

## CO/N=C1\CC(NC(=O)C(F)(F)F)c2ccsc21 (configuration not stated)
SF-539 CNS
  TGI: > 100 µM
SN12C renal
  TGI: > 100 µM
HCC-2998 colon
  TGI: > 100 µM
OVCAR-4 ovarian
  TGI: > 100 µM
TK-10 renal
  TGI: > 100 µM
DU-145 prostate
  TGI: > 100 µM
EKVX NSCLC
  TGI: > 100 µM
SR leukemia
  TGI: > 100 µM
HCT-15 colon
  TGI: > 100 µM

## COc1cc2ccc3c4cc(OC)c(OC)cc4c[n+](C)c3c2cc1O
SF-539 CNS
  TGI: > 100 µM
SN12C renal
  TGI: 43 µM
HCC-2998 colon
  TGI: > 100 µM
OVCAR-4 ovarian
  TGI: > 100 µM
KM20L2 colon
  TGI: > 100 µM
TK-10 renal
  TGI: > 100 µM
EKVX NSCLC
  TGI: > 100 µM
HCT-15 colon
  TGI: > 100 µM

## CN(C)CCNC(=O)c1cccc2c1Nc1ccccc1S2
SF-539 CNS
  TGI: 28.8 µM
SN12C renal
  TGI: 26.1 µM
HCC-2998 colon
  TGI: 27.2 µM
OVCAR-4 ovarian
  TGI: 26.4 µM
KM20L2 colon
  TGI: 29.9 µM
EKVX NSCLC
  TGI: 18.7 µM
HCT-15 colon
  TGI: 31.4 µM

## CC(C)NC(=O)OCc1c(COC(=O)NC(C)C)n(C)c2c1ccc1sccc12
SF-539 CNS
  TGI: 26 µM
SN12C renal
  TGI: 76.2 µM
HCC-2998 colon
  TGI: 30.3 µM
OVCAR-4 ovarian
  TGI: 36.5 µM
TK-10 renal
  TGI: 75.6 µM
DU-145 prostate
  TGI: 21.1 µM
EKVX NSCLC
  TGI: 34.1 µM
SR leukemia
  TGI: > 64.6 µM
HCT-15 colon
  TGI: > 52.3 µM

## O=C(CC(NC(=O)C(F)(F)F)C(=O)O)OCc1ccccc1 (configuration not stated)
SF-539 CNS
  TGI: > 100 µM
SN12C renal
  TGI: > 100 µM
HCC-2998 colon
  TGI: > 100 µM
OVCAR-4 ovarian
  TGI: > 100 µM
TK-10 renal
  TGI: > 100 µM
DU-145 prostate
  TGI: > 100 µM
EKVX NSCLC
  TGI: > 100 µM
SR leukemia
  TGI: > 100 µM
HCT-15 colon
  TGI: > 100 µM

## CC(=O)NNc1nc(C)c(C(=O)NNC(=O)C(=O)Nc2ccc([N+](=O)[O-])cc2[N+](=O)[O-])s1
SF-539 CNS
  TGI: > 100 µM
SN12C renal
  TGI: > 100 µM
HCC-2998 colon
  TGI: > 100 µM
OVCAR-4 ovarian
  TGI: > 100 µM
KM20L2 colon
  TGI: > 100 µM
TK-10 renal
  TGI: > 100 µM
EKVX NSCLC
  TGI: > 100 µM
SR leukemia
  TGI: > 100 µM
HCT-15 colon
  TGI: > 100 µM
